Source: the NIST ThermoML archive (doi:10.1016/j.jct.2013.02.023)
Where “and” joins values, the source holds several entries; their conditions need not be identical. Identical values can stand only once.

Experiment: molar heat capacity at constant pressure
Settings: 101.33 kPa, relaxation calorimetry - Quantum Design PPMS

O=P([O-])([O-])OP(=O)([O-])[O-].O=P([O-])([O-])OP(=O)([O-])[O-].O=P([O-])([O-])OP(=O)([O-])[O-].[Fe+3].[Fe+3].[Fe+3].[Fe+3] [iron(III) diphosphate]
molar heat capacity at constant pressure
Settings	Crystal 2	Crystal 3
1 K	–	0.08105 J/K/mol
1.909 K	–	0.1843 J/K/mol
2 K	–	0.2057 J/K/mol
2.045 K	–	0.2088 J/K/mol
2.21 K	–	0.2418 J/K/mol
2.506 K	–	0.3014 J/K/mol
2.763 K	–	0.3632 J/K/mol
3 K	–	0.4233 J/K/mol
3.058 K	–	0.4449 J/K/mol
3.392 K	–	0.553 J/K/mol
3.803 K	–	0.7103 J/K/mol
4 K	–	0.8002 J/K/mol
4.207 K	–	0.9081 J/K/mol
4.685 K	–	1.188 J/K/mol
5 K	–	1.41 J/K/mol
5.203 K	–	1.56 J/K/mol
5.797 K	–	2.097 J/K/mol
6 K	–	2.314 J/K/mol
6.489 K	–	2.871 J/K/mol
7 K	–	3.559 J/K/mol
7.172 K	–	3.81 J/K/mol
7.975 K	–	5.084 J/K/mol
8 K	–	5.127 J/K/mol
8.875 K	–	6.71 J/K/mol
9 K	–	6.952 J/K/mol
10 K	–	9.006 J/K/mol
10.03 K	–	9.074 J/K/mol
11 K	–	11.23 J/K/mol
11.16 K	–	11.61 J/K/mol
12 K	–	13.56 J/K/mol
12.39 K	–	14.49 J/K/mol
13 K	–	15.98 J/K/mol
13.77 K	–	17.87 J/K/mol
14 K	–	18.43 J/K/mol
15 K	–	20.84 J/K/mol
15.31 K	–	21.61 J/K/mol
16 K	–	23.37 J/K/mol
17 K	–	26.01 J/K/mol and 26.02 J/K/mol
18 K	–	28.75 J/K/mol
18.85 K	–	31.22 J/K/mol
19 K	–	31.74 J/K/mol and 31.7 J/K/mol
19.52 K	–	33.09 J/K/mol
20 K	–	34.42 J/K/mol
20.61 K	–	36.2 J/K/mol
20.9 K	–	37.11 J/K/mol
21.09 K	–	37.43 J/K/mol
21.6 K	–	38.93 J/K/mol
21.81 K	–	39.43 J/K/mol
22.11 K	–	40.45 J/K/mol
22.85 K	–	42.81 J/K/mol
23.25 K	–	44.02 J/K/mol
23.87 K	–	46 J/K/mol
23.89 K	–	46.12 J/K/mol
24.08 K	–	46.85 J/K/mol
24.28 K	–	47.45 J/K/mol
24.47 K	–	48.12 J/K/mol
24.67 K	–	48.81 J/K/mol
24.88 K	–	49.5 J/K/mol
25 K	–	49.88 J/K/mol
25.08 K	–	50.12 J/K/mol
25.28 K	–	50.75 J/K/mol
25.47 K	–	51.26 J/K/mol
25.67 K	–	51.84 J/K/mol
25.81 K	–	52.19 J/K/mol
25.87 K	–	52.46 J/K/mol
26.07 K	–	53.07 J/K/mol
26.27 K	–	53.83 J/K/mol
26.48 K	–	54.56 J/K/mol
26.69 K	–	55.35 J/K/mol
26.9 K	–	56.09 J/K/mol
27.11 K	–	56.75 J/K/mol
27.3 K	57.27 J/K/mol	57.27 J/K/mol
27.32 K	57.27 J/K/mol	–
27.52 K	56.92 J/K/mol	–
27.7 K	56.9 J/K/mol	–
27.91 K	56.91 J/K/mol	–
28.04 K	57.08 J/K/mol	–
28.11 K	57.21 J/K/mol	–
28.31 K	57.58 J/K/mol	–
28.53 K	58.14 J/K/mol	–
28.63 K	58.29 J/K/mol	–
28.71 K	58.58 J/K/mol	–
28.91 K	59.09 J/K/mol	–
28.99 K	59.36 J/K/mol	–
29.12 K	59.63 J/K/mol	–
29.32 K	60.15 J/K/mol	–
29.52 K	60.68 J/K/mol	–
30 K	62 J/K/mol	–
30.01 K	62.04 J/K/mol	–
30.53 K	63.41 J/K/mol	–
31.05 K	65.12 J/K/mol	–
31.57 K	66.61 J/K/mol	–
31.8 K	67.25 J/K/mol	–
32.07 K	68.15 J/K/mol	–
32.58 K	69.63 J/K/mol	–
33.05 K	71.25 J/K/mol	–
33.6 K	73.01 J/K/mol	–
34.1 K	74.7 J/K/mol	–
34.61 K	76.5 J/K/mol	–
35 K	77.84 J/K/mol	–
35.09 K	78.15 J/K/mol	–
35.33 K	78.91 J/K/mol	–
35.63 K	80.11 J/K/mol	–
36.09 K	81.71 J/K/mol	–
36.62 K	83.72 J/K/mol	–
37.1 K	85.44 J/K/mol	–
37.66 K	87.47 J/K/mol	–
38.15 K	89.5 J/K/mol	–
38.62 K	91.24 J/K/mol	–
39.17 K	93.41 J/K/mol	–
39.24 K	93.52 J/K/mol	–
39.64 K	95.31 J/K/mol	–
40 K	96.72 J/K/mol	–
40.17 K	97.41 J/K/mol	–
40.66 K	99.59 J/K/mol	–
41.19 K	101.8 J/K/mol	–
41.66 K	103.8 J/K/mol	–
42.22 K	106.31 J/K/mol	–
42.39 K	107.06 J/K/mol	–
42.6 K	108.05 J/K/mol	–
42.8 K	108.92 J/K/mol	–
43 K	109.89 J/K/mol	–
43.2 K	110.79 J/K/mol	–
43.41 K	111.83 J/K/mol	–
43.59 K	112.41 J/K/mol	–
43.6 K	112.72 J/K/mol	–
43.8 K	113.72 J/K/mol	–
44.01 K	114.89 J/K/mol	–
44.2 K	115.83 J/K/mol	–
44.41 K	116.9 J/K/mol	–
44.61 K	118.08 J/K/mol	–
44.81 K	119.19 J/K/mol	–
45 K	120.36 J/K/mol	–
45.02 K	120.42 J/K/mol	–
45.22 K	121.8 J/K/mol	–
